Values of other authors, collected in US7799540B2, “Method of producing lycopene through the fermentation of selected strains of Blackeslea trispora, formulations and uses of the lycopene thus obtained” (Vitatene, S.A., priority 2001, dated 2010).

Conditions: rats; Matos H.R. et al. (2001)

CC(C)=CCC/C(C)=C/C=C/C(C)=C/C=C/C(C)=C/C=C/C=C(C)/C=C/C=C(C)/C=C/C=C(\C)CCC=C(C)C [lycopene, Lycopene]
effect on harmful effect of ferric nitriloacetate on DNA: inhibits the harmful effect of ferric nitriloacetate on DNA
effect on necrosis of the liver: prevents necrosis of the liver
